Data taken from patent EP4745135A1 (Gluetacs Therapeutics (Shanghai) Co., Ltd., priority 2023, dated 2025).

Key:
[1] = molecular target: T1, human Cereblon WT GST-tagged protein (Homo sapiens, UniProt Q96SW2); test: CRBN-binding affinity, HTRF (CEREBLON BINDING kit); conditions: for inhibition at 0.5 µM: read-out: Inhibition Rate at 0.5 µM (%); for inhibition at 2 µM: read-out: Inhibition Rate at 2 µM (%)
T1 construct: purchased CISBIO 64BDCRBNPEH

CK1α = molecular target: T2, CK1α (Homo sapiens, UniProt P48729+Q96SW2); test: Western blot, degradation of substrate protein in hPBMCs; assay type: cell-based
T2 construct: effects of the compounds of the present disclosure on the expression of target proteins in cells; endogenous in cells; host or cells: human PBMCs (Milecell Biotechnologies)
T2 sequence (P48729 whole entry): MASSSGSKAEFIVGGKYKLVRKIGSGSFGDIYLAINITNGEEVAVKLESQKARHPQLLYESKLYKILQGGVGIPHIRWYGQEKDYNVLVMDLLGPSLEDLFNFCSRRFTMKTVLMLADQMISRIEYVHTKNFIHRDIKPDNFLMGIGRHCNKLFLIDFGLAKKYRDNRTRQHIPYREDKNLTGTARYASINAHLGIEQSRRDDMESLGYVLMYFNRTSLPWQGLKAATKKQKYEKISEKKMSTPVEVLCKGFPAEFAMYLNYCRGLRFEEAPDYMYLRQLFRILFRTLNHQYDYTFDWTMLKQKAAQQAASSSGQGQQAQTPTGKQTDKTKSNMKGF
T2 sequence (Q96SW2 whole entry): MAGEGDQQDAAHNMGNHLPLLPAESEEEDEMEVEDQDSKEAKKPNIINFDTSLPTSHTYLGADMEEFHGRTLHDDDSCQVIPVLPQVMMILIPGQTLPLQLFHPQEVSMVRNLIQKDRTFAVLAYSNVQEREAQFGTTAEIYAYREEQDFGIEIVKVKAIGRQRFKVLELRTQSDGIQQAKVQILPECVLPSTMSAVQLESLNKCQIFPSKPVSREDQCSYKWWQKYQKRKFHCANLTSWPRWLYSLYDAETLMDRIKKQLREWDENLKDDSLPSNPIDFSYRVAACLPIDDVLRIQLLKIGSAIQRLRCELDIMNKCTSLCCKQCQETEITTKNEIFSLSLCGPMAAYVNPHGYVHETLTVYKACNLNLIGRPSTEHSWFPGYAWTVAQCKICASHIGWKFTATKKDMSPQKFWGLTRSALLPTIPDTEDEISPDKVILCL
T2 sequence (Q16531 whole entry partner): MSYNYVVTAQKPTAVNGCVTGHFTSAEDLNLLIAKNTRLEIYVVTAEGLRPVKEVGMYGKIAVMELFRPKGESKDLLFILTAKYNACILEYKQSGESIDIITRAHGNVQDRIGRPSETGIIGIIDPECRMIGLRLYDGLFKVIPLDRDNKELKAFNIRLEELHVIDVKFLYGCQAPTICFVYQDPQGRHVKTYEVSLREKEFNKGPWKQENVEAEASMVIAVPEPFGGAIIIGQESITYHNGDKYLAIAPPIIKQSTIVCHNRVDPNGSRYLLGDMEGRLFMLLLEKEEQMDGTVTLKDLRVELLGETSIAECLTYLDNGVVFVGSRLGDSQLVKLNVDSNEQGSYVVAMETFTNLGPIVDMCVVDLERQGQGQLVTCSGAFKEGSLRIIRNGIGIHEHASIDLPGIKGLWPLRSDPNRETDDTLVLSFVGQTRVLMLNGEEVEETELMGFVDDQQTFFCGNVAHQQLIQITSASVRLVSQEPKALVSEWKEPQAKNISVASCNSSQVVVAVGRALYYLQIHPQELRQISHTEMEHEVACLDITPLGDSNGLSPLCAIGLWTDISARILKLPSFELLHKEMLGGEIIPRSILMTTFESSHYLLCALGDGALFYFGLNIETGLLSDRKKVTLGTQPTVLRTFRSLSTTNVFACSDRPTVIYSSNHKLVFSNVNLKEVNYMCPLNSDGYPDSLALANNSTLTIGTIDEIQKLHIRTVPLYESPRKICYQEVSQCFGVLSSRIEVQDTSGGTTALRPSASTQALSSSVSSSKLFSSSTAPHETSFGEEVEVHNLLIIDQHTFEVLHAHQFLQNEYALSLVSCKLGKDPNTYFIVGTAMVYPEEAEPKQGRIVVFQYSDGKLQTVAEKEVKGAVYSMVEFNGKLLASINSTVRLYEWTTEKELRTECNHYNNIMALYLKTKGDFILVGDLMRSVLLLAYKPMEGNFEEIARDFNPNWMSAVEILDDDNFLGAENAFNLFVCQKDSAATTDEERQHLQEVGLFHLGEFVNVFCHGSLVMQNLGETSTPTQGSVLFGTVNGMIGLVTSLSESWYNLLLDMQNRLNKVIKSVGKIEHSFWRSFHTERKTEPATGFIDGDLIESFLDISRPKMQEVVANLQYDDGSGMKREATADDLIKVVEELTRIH

WEE1 = molecular target: T3, WEE1 (Homo sapiens, UniProt P30291+Q96SW2); test: as above; assay type: cell-based
T3 construct: effects of the compounds of the present disclosure on the expression of target proteins in cells; endogenous in cells; host or cells: human PBMCs (Milecell Biotechnologies)
T3 sequence (P30291 whole entry): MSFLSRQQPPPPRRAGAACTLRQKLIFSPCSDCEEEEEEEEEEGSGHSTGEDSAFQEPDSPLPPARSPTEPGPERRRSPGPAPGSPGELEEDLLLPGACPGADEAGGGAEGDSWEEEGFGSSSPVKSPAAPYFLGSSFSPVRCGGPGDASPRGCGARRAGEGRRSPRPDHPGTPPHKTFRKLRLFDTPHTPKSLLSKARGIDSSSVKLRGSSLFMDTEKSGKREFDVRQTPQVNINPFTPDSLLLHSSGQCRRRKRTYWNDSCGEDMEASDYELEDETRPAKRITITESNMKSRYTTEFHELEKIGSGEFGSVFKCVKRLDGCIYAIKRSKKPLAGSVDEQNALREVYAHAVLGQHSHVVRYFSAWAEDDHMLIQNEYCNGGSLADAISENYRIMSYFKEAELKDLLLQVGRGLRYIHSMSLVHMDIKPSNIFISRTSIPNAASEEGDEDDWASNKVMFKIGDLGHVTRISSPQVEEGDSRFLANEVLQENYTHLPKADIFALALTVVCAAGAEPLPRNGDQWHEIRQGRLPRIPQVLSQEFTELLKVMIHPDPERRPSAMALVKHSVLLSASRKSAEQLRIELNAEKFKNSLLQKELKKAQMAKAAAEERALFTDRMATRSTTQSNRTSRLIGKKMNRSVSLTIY
T3 sequence (Q96SW2 whole entry): as the sequence (Q96SW2 whole entry) above
T3 sequence (Q16531 whole entry partner): as the sequence (Q16531 whole entry partner) above

IKZF2 = molecular target: T4, IKZF2 (Homo sapiens, UniProt Q96SW2+Q9UKS7); test: as above; assay type: cell-based
T4 construct: effects of the compounds of the present disclosure on the expression of target proteins in cells; endogenous in cells; host or cells: human PBMCs (Milecell Biotechnologies)
T4 sequence (Q9UKS7 whole entry): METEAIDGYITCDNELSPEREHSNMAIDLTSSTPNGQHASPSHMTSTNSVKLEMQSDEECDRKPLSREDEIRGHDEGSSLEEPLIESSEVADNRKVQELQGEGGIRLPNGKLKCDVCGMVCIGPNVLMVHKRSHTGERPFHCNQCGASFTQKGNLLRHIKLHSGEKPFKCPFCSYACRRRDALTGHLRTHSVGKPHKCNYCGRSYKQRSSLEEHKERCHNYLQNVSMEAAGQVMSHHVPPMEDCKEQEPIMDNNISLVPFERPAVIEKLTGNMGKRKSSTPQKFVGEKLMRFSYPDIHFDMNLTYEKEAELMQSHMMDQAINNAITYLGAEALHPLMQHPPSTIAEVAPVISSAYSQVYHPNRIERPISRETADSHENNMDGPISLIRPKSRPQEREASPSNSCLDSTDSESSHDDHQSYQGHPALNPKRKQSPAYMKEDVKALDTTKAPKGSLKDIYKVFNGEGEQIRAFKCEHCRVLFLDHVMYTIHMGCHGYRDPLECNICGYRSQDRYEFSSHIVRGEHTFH
T4 sequence (Q96SW2 whole entry): as the sequence (Q96SW2 whole entry) above
T4 sequence (Q16531 whole entry partner): as the sequence (Q16531 whole entry partner) above

IKZF3 = molecular target: T5, IKZF3 (Homo sapiens, UniProt Q96SW2+Q9UKT9); test: as above; assay type: cell-based
T5 construct: effects of the compounds of the present disclosure on the expression of target proteins in cells; endogenous in cells; host or cells: human PBMCs (Milecell Biotechnologies)
T5 sequence (Q9UKT9 whole entry): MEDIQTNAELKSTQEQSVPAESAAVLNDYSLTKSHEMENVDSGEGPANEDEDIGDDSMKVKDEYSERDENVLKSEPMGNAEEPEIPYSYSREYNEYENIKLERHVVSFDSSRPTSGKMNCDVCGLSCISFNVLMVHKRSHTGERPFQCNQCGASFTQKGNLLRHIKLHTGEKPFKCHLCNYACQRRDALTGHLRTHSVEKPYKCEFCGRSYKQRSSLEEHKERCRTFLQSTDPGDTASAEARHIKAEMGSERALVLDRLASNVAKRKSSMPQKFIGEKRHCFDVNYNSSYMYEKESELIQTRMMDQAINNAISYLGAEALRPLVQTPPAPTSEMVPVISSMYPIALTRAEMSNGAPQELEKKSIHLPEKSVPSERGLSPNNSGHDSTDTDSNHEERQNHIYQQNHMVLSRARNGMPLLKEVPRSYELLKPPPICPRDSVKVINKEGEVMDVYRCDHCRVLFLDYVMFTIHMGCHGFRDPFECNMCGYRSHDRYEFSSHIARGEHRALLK
T5 sequence (Q96SW2 whole entry): as the sequence (Q96SW2 whole entry) above
T5 sequence (Q16531 whole entry partner): as the sequence (Q16531 whole entry partner) above

IKZF1 = molecular target: T6, IKZF1 (Homo sapiens, UniProt Q13422+Q96SW2); test: as above; assay type: cell-based
T6 construct: effects of the compounds of the present disclosure on the expression of target proteins in cells; endogenous in cells; host or cells: human PBMCs (Milecell Biotechnologies)
T6 sequence (Q13422 whole entry): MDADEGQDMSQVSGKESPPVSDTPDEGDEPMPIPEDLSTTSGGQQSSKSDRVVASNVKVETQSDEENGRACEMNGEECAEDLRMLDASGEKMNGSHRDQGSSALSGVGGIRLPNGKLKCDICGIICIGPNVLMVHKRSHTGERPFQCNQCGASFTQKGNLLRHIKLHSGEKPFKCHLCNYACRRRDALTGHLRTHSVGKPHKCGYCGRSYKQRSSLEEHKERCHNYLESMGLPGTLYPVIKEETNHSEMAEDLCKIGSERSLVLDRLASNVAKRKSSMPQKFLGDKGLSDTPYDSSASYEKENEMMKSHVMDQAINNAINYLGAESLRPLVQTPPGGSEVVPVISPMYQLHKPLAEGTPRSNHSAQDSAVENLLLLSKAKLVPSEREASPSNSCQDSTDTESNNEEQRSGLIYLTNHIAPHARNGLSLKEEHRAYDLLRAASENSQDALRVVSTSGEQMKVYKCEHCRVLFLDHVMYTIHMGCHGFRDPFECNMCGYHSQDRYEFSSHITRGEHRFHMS
T6 sequence (Q96SW2 whole entry): as the sequence (Q96SW2 whole entry) above
T6 sequence (Q16531 whole entry partner): as the sequence (Q16531 whole entry partner) above

GSPT1 = test: as above; assay type: cell-based, Human
[2] = Western blot, 24 hours of compound treatment, compounds tested at 50 nM and 500 nM (concentration for the table not stated)
[3] = 24 hours treatment, compounds at 50 nM and 500 nM (concentration behind the class not stated)

T1 sequence (Q96SW2 whole entry): as the sequence (Q96SW2 whole entry) above

| SMILES | inhibition at 0.5 µM [1] [%] | inhibition at 2 µM [1] [%] | CK1α substrate protein remaining % (CK1α; [2]) | Wee1 substrate protein remaining % (WEE1; [2]) | IKZF2 substrate protein remaining % (IKZF2; [2]) | IKZF3 substrate protein remaining % (IKZF3; [2]) | IKZF 1 substrate protein remaining % (IKZF1; [2]) | GSPT1 substrate protein remaining % (GSPT1; [2]) | CK1α substrate protein remaining % (CK1α; [3]) | Wee1 substrate protein remaining % (WEE1; [3]) | IKZF2 substrate protein remaining % (IKZF2; [3]) | IKZF3 substrate protein remaining % (IKZF3; [3]) | IKZF 1 substrate protein remaining % (IKZF1; [3]) | GSPT1 substrate protein remaining % (GSPT1; [3]) | IC50 ([1]; CRBN binding, HTRF, 3 hours at room temperature, read-out: HTRF IC50) [nM] |
| --- | --- | --- | --- | --- | --- | --- | --- | --- | --- | --- | --- | --- | --- | --- | --- |
| O=C1CCC(N2Cc3cc(CN4CC=C(c5ccnc(F)c5F)CC4)ccc3C2=S)C(=O)N1 (centres unmarked) [GT-08474, 3-(5-((2',3'-difluoro-3,6-dihydro-[4,4'-bipyridin]-1(2H)-yl)methyl)-1-thioxoisoindolin-2-yl)piperidine-2,6-dione] | 80 to 100 | 80 to 100 | B (80%< substrate protein remaining %≤ 100%) | B (80%< substrate protein remaining %≤ 100%) | B (80%< substrate protein remaining %≤ 100%) | B (80%< substrate protein remaining %≤ 100%) | B (80%< substrate protein remaining %≤ 100%) | A (0% ≤ substrate protein remaining % ≤ 80%) |  |  |  |  |  |  |  |
| O=C1CCC(N2Cc3c(CN4CCN(c5ccc(Cl)c(Cl)c5)CC4)cccc3C2=S)C(=O)N1 (centres unmarked) [GT-08502, 3-(4-((4-(3,4-dichlorophenyl)piperazin-1-yl)methyl)-1-thioxoisoindolin-2-yl)piperidine-2,6-dione] | 40 to 53 | 60 to 80 | B (80%< substrate protein remaining %≤ 100%) | A (0% ≤ substrate protein remaining % ≤ 80%) | A (0% ≤ substrate protein remaining % ≤ 80%) | B (80%< substrate protein remaining %≤ 100%) | B (80%< substrate protein remaining %≤ 100%) | A (0% ≤ substrate protein remaining % ≤ 80%) |  |  |  |  |  |  |  |
| CC1(C)CCC(CN2CC3CCC2CN3Cc2cccc3c2CN(C2CCC(=O)NC2=O)C3=S)=C(c2ccc(Cl)cc2)C1 (centres unmarked) [GT-08302, 3-(4-((5-((4'-chloro-5,5-dimethyl-3,4,5,6-tetrahydro-[1,1'-biphenyl]-2-yl)methyl)-2,5-diazabicyclo[2.2.2]octan-2-yl)methyl)-1-thioxoisoindolin-2-yl)piperidine-2,6-dione] | 30 to 40 | 80 to 100 | B (80%< substrate protein remaining %≤ 100%) | A (0% ≤ substrate protein remaining % ≤ 80%) | B (80%< substrate protein remaining %≤ 100%) | B (80%< substrate protein remaining %≤ 100%) | B (80%< substrate protein remaining %≤ 100%) | B (80%< substrate protein remaining %≤ 100%) |  |  |  |  |  |  |  |
| Cc1nc(C2=CCN(Cc3cccc4c3CN(C3CCC(=O)NC3=O)C4=S)CC2)c2c3c(sc2n1)CCCC3 (centres unmarked) [GT-08961, 3-(4-((4-(2-methyl-5,6,7,8-tetrahydrobenzo[4,5]thieno[2,3-d]pyrimidin-4-yl)-3,6-dihydropyridin-1(2H)-yl)methyl)-1-thioxoisoindolin-2-yl)piperidine-2,6-dione] | 40 to 53 | 80 to 100 |  |  |  |  |  |  | B (80%< substrate protein remaining %≤ 100%) | A (0% ≤ substrate protein remaining % ≤ 80%) | B (80%< substrate protein remaining %≤ 100%) | B (80%< substrate protein remaining %≤ 100%) | B (80%< substrate protein remaining %≤ 100%) | B (80%< substrate protein remaining %≤ 100%) |  |
| O=C1CCC(N2Cc3c(CN4CC=C(c5cccc6cnccc56)CC4)cccc3C2=S)C(=O)N1 (centres unmarked) [GT-08634, 3-(4-((4-(isoquinolin-5-yl)-3,6-dihydropyridin-1(2H)-yl)methyl)-1-thioxoisoindolin-2-yl)piperidine-2,6-dione] | 60 to 80 | 80 to 100 | B (80%< substrate protein remaining %≤ 100%) | A (0% ≤ substrate protein remaining % ≤ 80%) | B (80%< substrate protein remaining %≤ 100%) | B (80%< substrate protein remaining %≤ 100%) | B (80%< substrate protein remaining %≤ 100%) | B (80%< substrate protein remaining %≤ 100%) |  |  |  |  |  |  |  |
| O=C1CCC(N2Cc3c(CN4CC(N5CCc6cc(F)ccc65)C4)cccc3C2=S)C(=O)N1 (centres unmarked) [GT-08635, 3-(4-((3-(5-fluoroindolin-1-yl)azetidin-1-yl)methyl)-1-thioxoisoindolin-2-yl)piperidine-2,6-dione] | 80 to 100 | 80 to 100 | B (80%< substrate protein remaining %≤ 100%) | A (0% ≤ substrate protein remaining % ≤ 80%) | B (80%< substrate protein remaining %≤ 100%) | B (80%< substrate protein remaining %≤ 100%) | B (80%< substrate protein remaining %≤ 100%) | B (80%< substrate protein remaining %≤ 100%) |  |  |  |  |  |  |  |
| O=C1CCC(N2Cc3cc(CN4CC=C(c5cccc6cnccc56)CC4)ccc3C2=S)C(=O)N1 (centres unmarked) [GT-05246, 3-(5-((4-(isoquinolin-5-yl)-3,6-dihydropyridin-1(2H)-yl)methyl)-1-thioxoisoindolin-2-yl)piperidine-2,6-dione] |  |  | B (80%< substrate protein remaining %≤ 100%) | A (0% ≤ substrate protein remaining % ≤ 80%) | B (80%< substrate protein remaining %≤ 100%) | B (80%< substrate protein remaining %≤ 100%) | B (80%< substrate protein remaining %≤ 100%) | A (0% ≤ substrate protein remaining % ≤ 80%) |  |  |  |  |  |  | 100 to 500 |
| O=C1CCC(N2Cc3c(CN4CC=C(c5cncc(Cl)c5)CC4)cccc3C2=S)C(=O)N1 (centres unmarked) [GT-08461, 3-(4-((5-chloro-3',6'-dihydro-[3,4'-bipyridin]-1'(2'H)-yl)methyl)-1-thioxoisoindolin-2-yl)piperidine-2,6-dione] | 60 to 80 | 80 to 100 | B (80%< substrate protein remaining %≤ 100%) | A (0% ≤ substrate protein remaining % ≤ 80%) | B (80%< substrate protein remaining %≤ 100%) | A (0% ≤ substrate protein remaining % ≤ 80%) | B (80%< substrate protein remaining %≤ 100%) | B (80%< substrate protein remaining %≤ 100%) |  |  |  |  |  |  |  |
| Cc1nc(C2CCN(Cc3ccc4c(c3)CN(C3CCC(=O)NC3=O)C4=S)CC2)c2ccsc2n1 (centres unmarked) [GT-09309, 3-(5-((4-(2-methylthieno[2,3-d]pyrimidin-4-yl)piperidin-1-yl)methyl)-1-thioxoisoindolin-2-yl)piperidine-2,6-dione] | 60 to 80 | 80 to 100 |  |  |  |  |  |  | B (80%< substrate protein remaining %≤ 100%) | B (80%< substrate protein remaining %≤ 100%) | B (80%< substrate protein remaining %≤ 100%) | B (80%< substrate protein remaining %≤ 100%) | B (80%< substrate protein remaining %≤ 100%) | A (0% ≤ substrate protein remaining % ≤ 80%) |  |
